A value given as a limit tells only on which side of the number the result lay.

The target of this test is Proto-oncogene tyrosine-protein kinase ROS (Homo sapiens) (UniProt P08922). The test can be described thus: Inhibition of ROS1 at 20 uM by HotSpot assay.
Proto-oncogene tyrosine-protein kinase ROS (Homo sapiens), sequence (P08922 whole entry): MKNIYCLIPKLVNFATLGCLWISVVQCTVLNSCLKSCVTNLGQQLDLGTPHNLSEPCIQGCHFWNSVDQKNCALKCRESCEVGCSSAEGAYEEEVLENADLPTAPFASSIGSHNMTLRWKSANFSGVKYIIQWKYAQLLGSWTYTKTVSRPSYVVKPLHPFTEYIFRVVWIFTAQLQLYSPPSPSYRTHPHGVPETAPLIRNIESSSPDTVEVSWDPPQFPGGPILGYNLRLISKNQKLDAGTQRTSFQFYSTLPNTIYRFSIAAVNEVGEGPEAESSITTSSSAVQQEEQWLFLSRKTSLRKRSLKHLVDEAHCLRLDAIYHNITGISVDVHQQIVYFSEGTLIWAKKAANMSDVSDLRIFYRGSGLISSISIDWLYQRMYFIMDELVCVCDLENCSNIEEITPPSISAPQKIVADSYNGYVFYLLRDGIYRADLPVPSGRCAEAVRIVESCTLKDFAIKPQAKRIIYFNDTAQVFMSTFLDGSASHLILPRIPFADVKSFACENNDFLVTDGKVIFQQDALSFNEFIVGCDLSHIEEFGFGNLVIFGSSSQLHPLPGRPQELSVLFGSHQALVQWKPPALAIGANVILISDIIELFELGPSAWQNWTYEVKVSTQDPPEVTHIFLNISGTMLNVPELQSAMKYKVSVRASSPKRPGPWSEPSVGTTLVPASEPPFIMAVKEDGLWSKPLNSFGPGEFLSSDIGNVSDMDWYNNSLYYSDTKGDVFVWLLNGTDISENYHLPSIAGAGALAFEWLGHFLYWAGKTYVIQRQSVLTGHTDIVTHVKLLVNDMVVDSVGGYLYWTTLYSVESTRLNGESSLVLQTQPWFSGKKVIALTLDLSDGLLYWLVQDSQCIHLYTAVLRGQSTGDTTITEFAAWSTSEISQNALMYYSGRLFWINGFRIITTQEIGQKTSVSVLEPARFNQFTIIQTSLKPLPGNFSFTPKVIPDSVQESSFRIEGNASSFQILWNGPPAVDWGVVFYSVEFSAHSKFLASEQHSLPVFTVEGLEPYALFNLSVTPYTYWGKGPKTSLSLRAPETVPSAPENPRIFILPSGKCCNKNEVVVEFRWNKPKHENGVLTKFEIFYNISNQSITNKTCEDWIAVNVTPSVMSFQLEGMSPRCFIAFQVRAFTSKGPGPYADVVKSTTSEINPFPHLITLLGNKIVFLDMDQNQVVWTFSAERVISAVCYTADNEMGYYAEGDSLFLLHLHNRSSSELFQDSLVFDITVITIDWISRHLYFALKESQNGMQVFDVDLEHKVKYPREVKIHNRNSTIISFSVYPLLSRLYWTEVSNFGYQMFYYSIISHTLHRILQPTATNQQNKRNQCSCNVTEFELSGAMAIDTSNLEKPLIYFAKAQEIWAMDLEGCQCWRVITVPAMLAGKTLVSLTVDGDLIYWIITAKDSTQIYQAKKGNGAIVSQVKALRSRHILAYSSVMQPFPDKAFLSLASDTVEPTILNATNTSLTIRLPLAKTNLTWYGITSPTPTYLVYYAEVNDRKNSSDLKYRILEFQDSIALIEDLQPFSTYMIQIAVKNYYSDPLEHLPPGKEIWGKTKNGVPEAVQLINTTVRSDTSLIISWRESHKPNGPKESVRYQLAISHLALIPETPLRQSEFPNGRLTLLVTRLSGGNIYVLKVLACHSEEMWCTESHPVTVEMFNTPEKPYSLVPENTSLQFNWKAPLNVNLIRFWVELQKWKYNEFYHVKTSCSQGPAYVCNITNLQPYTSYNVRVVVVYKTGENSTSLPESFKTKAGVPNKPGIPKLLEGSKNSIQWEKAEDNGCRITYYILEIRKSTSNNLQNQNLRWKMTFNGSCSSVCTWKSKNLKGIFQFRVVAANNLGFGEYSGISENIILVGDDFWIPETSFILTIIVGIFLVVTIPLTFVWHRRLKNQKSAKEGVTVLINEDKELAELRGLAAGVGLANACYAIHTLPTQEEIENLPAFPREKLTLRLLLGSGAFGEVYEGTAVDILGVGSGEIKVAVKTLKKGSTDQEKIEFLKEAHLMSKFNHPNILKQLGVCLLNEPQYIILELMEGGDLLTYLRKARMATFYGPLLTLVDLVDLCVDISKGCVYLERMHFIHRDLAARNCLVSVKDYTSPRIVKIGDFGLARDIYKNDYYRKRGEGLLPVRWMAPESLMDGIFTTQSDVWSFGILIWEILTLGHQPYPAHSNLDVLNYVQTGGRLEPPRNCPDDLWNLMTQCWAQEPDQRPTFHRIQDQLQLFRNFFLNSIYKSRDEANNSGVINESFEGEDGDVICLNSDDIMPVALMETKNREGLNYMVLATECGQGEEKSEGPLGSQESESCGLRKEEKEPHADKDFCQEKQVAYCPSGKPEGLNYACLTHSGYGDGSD
Compound `COc1cc(C)cc(-c2c(-c3ccc(-c4cccnc4)nc3)cnn2CC#N)c1` came in with an inhibition of less than 30%. `COc1cc(C)cc(-c2c(-c3ccc(-c4cccc(C(C)=O)c4)nc3)cnn2CC#N)c1` displayed an inhibition of less than 30%.

For `CC(=O)c1cccc(-c2ccc(-c3cnn(CC#N)c3-c3cc(C)cc(O)c3)cn2)c1`, the inhibition was less than 30%. Compound `COc1cc(C)cc(-c2c(-c3ccnc(-c4ccccc4C(C)=O)c3)cnn2CC#N)c1` gave an inhibition of less than 30%. Consider `COc1cc(C)cc(-c2c(-c3ccnc(-c4ccccc4NC(C)=O)c3)cnn2CC#N)c1`, for which the inhibition was less than 30%. Take `Cc1cc(O)cc(-c2c(-c3ccnc(-c4ccc(Oc5ccccc5)cc4)c3)cnn2CC#N)c1`: the inhibition was less than 30%. `Cc1cc(O)cc(-c2nn(CC#N)cc2-c2ccnc(-c3ccccc3)c2)c1` returned an inhibition of less than 30%. `Cc1cc(O)cc(-c2nn(CC#N)cc2-c2ccnc(-c3cccnc3)c2)c1` showed an inhibition of 96%. As for `COc1cc(C)cc(-c2nn(CC#N)cc2-c2ccnc(-c3cccnc3)c2)c1`, the figure is less than 30%; as for `CC(=O)Nc1ccccc1-c1cc(-c2cnn(CC#N)c2-c2cc(C)cc(O)c2)ccn1`, less than 30%. As for `COc1cc(C)cc(-c2c(-c3ccnc(-c4cccnc4)c3)cnn2CC#N)c1`, the figure is less than 30%; as for `COc1cc(C)cc(-c2c(-c3ccnc(-c4ccccc4)c3)cnn2CC#N)c1`, less than 30%; as for `COc1cc(C)cc(-c2c(-c3ccnc(-c4cccc(NC(C)=O)c4)c3)cnn2CC#N)c1`, less than 30%. As for `COc1cc(C)cc(-c2nn(CC#N)cc2-c2ccnc(-c3ccccc3NC(C)=O)c2)c1`, the figure is less than 30%. The compound `COc1cc(C)cc(-c2c(-c3ccc(-c4ccccc4C(C)=O)nc3)cnn2CC#N)c1` registered an inhibition of less than 30%. As for `CC(=O)Nc1ccccc1-c1cc(-c2cn(CC#N)nc2-c2cc(C)cc(O)c2)ccn1`, the figure is less than 30%; as for `COc1cc(C)cc(-c2nn(CC#N)cc2-c2ccnc(-c3cccc(C(C)=O)c3)c2)c1`, less than 30%. Regarding `Cc1cc(O)cc(-c2nn(CC#N)cc2-c2ccc(-c3cccnc3)nc2)c1`, the inhibition was less than 30%. On to `COc1cc(C)cc(-c2nn(CC#N)cc2-c2ccnc(-c3ccc(N(C)C)cc3)c2)c1`, for which the inhibition is less than 30%. `CC(=O)c1cccc(-c2ccc(-c3cn(CC#N)nc3-c3cc(C)cc(O)c3)cn2)c1` had an inhibition of less than 30%. In turn, `Cc1cc(O)cc(-c2c(-c3ccnc(-c4cccnc4)c3)cnn2CC#N)c1` returned an inhibition of less than 30%. `CC(=O)Nc1cccc(-c2cc(-c3cnn(CC#N)c3-c3cc(C)cc(O)c3)ccn2)c1` displayed an inhibition of less than 30%.

`COc1cc(C)cc(-c2nn(CC#N)cc2-c2ccc(-c3cccc(C(C)=O)c3)nc2)c1` came in with an inhibition of less than 30%.

Regarding `CC(=O)c1cccc(-c2cc(-c3cn(CC#N)nc3-c3cc(C)cc(O)c3)ccn2)c1`, the inhibition is less than 30%. The compound `CC(=O)c1ccc(-c2cc(-c3cnn(CC#N)c3-c3cc(C)cc(O)c3)ccn2)cc1` registered an inhibition of less than 30%. For the compound `COc1cc(C)cc(-c2nn(CC#N)cc2-c2ccnc(-c3ccc(C(C)=O)cc3)c2)c1`, the inhibition was less than 30%. In the case of `COc1cc(C)cc(-c2c(-c3ccnc(-c4ccc(C#N)cc4)c3)cnn2CC#N)c1`, the inhibition is less than 30%. As for `COc1cc(C)cc(-c2nn(CC#N)cc2-c2ccnc(-c3ccccc3C(C)=O)c2)c1`, the inhibition is less than 30%. Turning to `COc1cc(C)cc(-c2nn(CC#N)cc2-c2ccnc(-c3cccc(NC(C)=O)c3)c2)c1`, the inhibition is less than 30%. `Cc1cc(O)cc(-c2nn(CC#N)cc2-c2ccnc(-c3ccc(Oc4ccccc4)cc3)c2)c1` gave an inhibition of less than 30%. Consider `COc1cc(C)cc(-c2c(-c3ccnc(-c4ccc(C(C)=O)cc4)c3)cnn2CC#N)c1`, for which the inhibition is less than 30%. Consider `COc1cc(C)cc(-c2nn(CC#N)cc2-c2ccnc(-c3ccc(C#N)cc3)c2)c1`, for which the inhibition is less than 30%.

With `Cc1cc(O)cc(-c2nn(CC#N)cc2-c2ccnc(-c3ccc(N(C)C)cc3)c2)c1`, the inhibition is less than 30%.

For `COc1cc(C)cc(-c2c(-c3ccnc(-c4cccc(C(C)=O)c4)c3)cnn2CC#N)c1`, the inhibition was less than 30%. Consider `CC(=O)Nc1cccc(-c2cc(-c3cn(CC#N)nc3-c3cc(C)cc(O)c3)ccn2)c1`, for which the inhibition was less than 30%. Take `COc1cc(C)cc(-c2c(-c3ccnc(-c4ccc(N(C)C)cc4)c3)cnn2CC#N)c1`: the inhibition was less than 30%. `Cc1cc(O)cc(-c2c(-c3ccnc(-c4ccc(C#N)cc4)c3)cnn2CC#N)c1` yielded an inhibition of less than 30%. For `COc1cc(C)cc(-c2nn(CC#N)cc2-c2ccc(-c3ccccc3C(C)=O)nc2)c1`, the inhibition is less than 30%. Compound `CC(=O)c1ccc(-c2cc(-c3cn(CC#N)nc3-c3cc(C)cc(O)c3)ccn2)cc1` yielded an inhibition of less than 30%. Next, `Cc1cc(O)cc(-c2c(-c3ccnc(-c4ccccc4)c3)cnn2CC#N)c1`: less than 30%; `CC(=O)c1ccccc1-c1cc(-c2cnn(CC#N)c2-c2cc(C)cc(O)c2)ccn1`: less than 30%. `CC(=O)c1ccccc1-c1ccc(-c2cn(CC#N)nc2-c2cc(C)cc(O)c2)cn1` yielded an inhibition of less than 30%.

`CC(=O)c1ccccc1-c1cc(-c2cn(CC#N)nc2-c2cc(C)cc(O)c2)ccn1`: the inhibition was less than 30%. Compound `Cc1cc(O)cc(-c2c(-c3ccnc(-c4ccc(N(C)C)cc4)c3)cnn2CC#N)c1` returned an inhibition of less than 30%. `COc1cc(C)cc(-c2nn(CC#N)cc2-c2ccnc(-c3ccccc3)c2)c1` had an inhibition of less than 30%. In turn, `COc1cc(C)cc(-c2nn(CC#N)cc2-c2ccnc(-c3ccc(Oc4ccccc4)cc3)c2)c1` showed an inhibition of less than 30%. The compound `CC(=O)c1ccccc1-c1ccc(-c2cnn(CC#N)c2-c2cc(C)cc(O)c2)cn1` registered an inhibition of less than 30%. In the case of `Cc1cc(O)cc(-c2nn(CC#N)cc2-c2ccnc(-c3ccc(C#N)cc3)c2)c1`, the inhibition was less than 30%. Compound `COc1cc(C)cc(-c2c(-c3ccnc(-c4ccc(Oc5ccccc5)cc4)c3)cnn2CC#N)c1` returned an inhibition of less than 30%.

Compound `COc1cc(C)cc(-c2nn(CC#N)cc2-c2ccc(-c3cccnc3)nc2)c1` registered an inhibition of less than 30%.

`CC(=O)c1cccc(-c2cc(-c3cnn(CC#N)c3-c3cc(C)cc(O)c3)ccn2)c1` showed an inhibition of less than 30%.

Source of the values: ChEMBL document CHEMBL1155185, “Design, synthesis, screening, and molecular modeling study of a new series of ROS1 receptor tyrosine kinase inhibitors” (Bioorg Med Chem Lett, 2009).
